# According to ChEMBL document CHEMBL1201862, “PubChem BioAssay data set” (2004):
#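 Values below derive from 48-hour exposures of cells grown in 96-well plates, with endpoints linearly interpolated between the two concentrations bracketing the appropriate inhibition level. GI50 marks 50% less growth.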 Calls of active or inactive are those of the source. No stated cut-off is given here; in the data, active = GI50 up to about 1.1 µM and inactive = higher.
# Assays:
# Test in all cases: NCI-60 cell line screen, 48 h
# OVCAR-5 = test system: OVCAR-5
# RXF 393 = test system: RXF 393
# COLO 205 = test system: COLO 205
# SF-268 = test system: SF-268
# KM12 = test system: KM12
# EKVX = test system: EKVX
# PC-3 = test system: PC-3
# IGROV-1 = test system: IGROV-1
# NCI-H226 = test system: NCI-H226
# HOP-92 = test system: HOP-92
# HCC 2998 = test system: HCC 2998
# SN12C = test system: SN12C
# UACC-62 = test system: UACC-62
# HT-29 = test system: HT-29
# MCF7 = test system: MCF7
# DU-145 = test system: DU-145
# T47D = test system: T47D
# NCI-H23 = test system: NCI-H23
# NCI/ADR-RES = test system: NCI/ADR-RES
# K562 = test system: K562
# U-251 = test system: U-251
# Hs-578T = test system: Hs-578T
# LOX IMVI = test system: LOX IMVI
# Malme-3M = test system: Malme-3M
# A549 = test system: A549
# OVCAR-3 = test system: OVCAR-3
# OVCAR-8 = test system: OVCAR-8
# UACC-257 = test system: UACC-257
# M14 = test system: M14
# RPMI-8226 = test system: RPMI-8226
# SNB-75 = test system: SNB-75
# HCT-116 = test system: HCT-116
# HOP-62 = test system: HOP-62
# SNB-19 = test system: SNB-19
# NCI-H460 = test system: NCI-H460
# 786-0 = test system: 786-0
# TK-10 = test system: TK-10
# SK-MEL-28 = test system: SK-MEL-28
# SK-MEL-5 = test system: SK-MEL-5
# A498 = test system: A498
# SK-OV-3 = test system: SK-OV-3
# BT-549 = test system: BT-549
# HCT-15 = test system: HCT-15
# OVCAR-4 = test system: OVCAR-4
# SF-295 = test system: SF-295
# SW-620 = test system: SW-620
# MDA-N = test system: MDA-N
# UO-31 = test system: UO-31
# NCI-H522 = test system: NCI-H522
# SF-539 = test system: SF-539
# ACHN = test system: ACHN
# MDA-MB-435 = test system: MDA-MB-435
# SK-MEL-2 = test system: SK-MEL-2
# CAKI-1 = test system: CAKI-1
# MOLT-4 = test system: MOLT-4
# MDA-MB-231 = test system: MDA-MB-231
# SR = test system: SR
structure (smiles),measurement,setting,value
CC1(C)SC2C(C(=O)O)N=C(Cc3ccccc3)N2C1C(=O)O (stereo not drawn),GI50,OVCAR-5,36.8 µM (inactive)
same,GI50,RXF 393,34.6 µM (inactive)
same,GI50,COLO 205,> 100 µM (inactive)
same,GI50,SF-268,30.1 µM (inactive)
same,GI50,KM12,> 100 µM (inactive)
same,GI50,EKVX,3.97 µM (inactive)
same,GI50,PC-3,42.7 µM (inactive)
same,GI50,IGROV-1,> 100 µM (inactive)
same,GI50,NCI-H226,29.8 µM (inactive)
same,GI50,HOP-92,42.8 µM (inactive)
same,GI50,HCC 2998,25.3 µM (inactive)
same,GI50,SN12C,35 µM (inactive)
same,GI50,UACC-62,> 100 µM (inactive)
same,GI50,HT-29,13.6 µM (inactive)
same,GI50,MCF7,34.2 µM (inactive)
same,GI50,DU-145,56.6 µM (inactive)
same,GI50,T47D,24.4 µM (inactive)
same,GI50,NCI-H23,86.3 µM (inactive)
same,GI50,NCI/ADR-RES,33.9 µM (inactive)
same,GI50,K562,62.7 µM (inactive)
same,GI50,U-251,32.7 µM (inactive)
same,GI50,Hs-578T,29.4 µM (inactive)
same,GI50,LOX IMVI,25.5 µM (inactive)
same,GI50,Malme-3M,62.2 µM (inactive)
same,GI50,A549,31.8 µM (inactive)
same,GI50,OVCAR-3,49 µM (inactive)
same,GI50,OVCAR-8,37.3 µM (inactive)
same,GI50,UACC-257,21.9 µM (inactive)
same,GI50,M14,37.2 µM (inactive)
same,GI50,RPMI-8226,46.8 µM (inactive)
same,GI50,SNB-75,19.6 µM (inactive)
same,GI50,HCT-116,24.9 µM (inactive)
same,GI50,HOP-62,32.1 µM (inactive)
same,GI50,SNB-19,32.5 µM (inactive)
same,GI50,NCI-H460,45.1 µM (inactive)
same,GI50,786-0,19.8 µM (inactive)
same,GI50,TK-10,20.4 µM (inactive)
same,GI50,SK-MEL-28,52.4 µM (inactive)
same,GI50,SK-MEL-5,> 100 µM (inactive)
same,GI50,A498,53.7 µM (inactive)
same,GI50,SK-OV-3,41.2 µM (inactive)
same,GI50,BT-549,31 µM (inactive)
same,GI50,HCT-15,81.5 µM
same,GI50,OVCAR-4,92.3 µM (inactive)
same,GI50,SF-295,31.7 µM (inactive)
same,GI50,SW-620,60.3 µM (inactive)
same,GI50,MDA-N,49 µM (inactive)
same,GI50,UO-31,19.4 µM (inactive)
same,GI50,NCI-H522,51.3 µM (inactive)
same,GI50,SF-539,30.8 µM (inactive)
same,GI50,ACHN,38.9 µM (inactive)
same,GI50,MDA-MB-435,40.7 µM (inactive)
same,GI50,SK-MEL-2,> 100 µM (inactive)
same,GI50,CAKI-1,43.7 µM (inactive)
same,GI50,MOLT-4,> 100 µM (inactive)
same,GI50,MDA-MB-231,43.3 µM (inactive)
same,GI50,SR,33.9 µM (inactive)
c1cc(CNCCN2CCNCC2)ccn1,GI50,OVCAR-5,> 100 µM (inactive)
same,GI50,RXF 393,> 100 µM (inactive)
same,GI50,COLO 205,> 100 µM (inactive)
same,GI50,SF-268,> 100 µM (inactive)
same,GI50,KM12,> 100 µM (inactive)
same,GI50,EKVX,> 100 µM (inactive)
same,GI50,PC-3,> 100 µM (inactive)
same,GI50,IGROV-1,> 100 µM (inactive)
same,GI50,NCI-H226,> 100 µM (inactive)
same,GI50,HOP-92,> 100 µM (inactive)
same,GI50,SN12C,> 100 µM (inactive)
same,GI50,UACC-62,> 100 µM (inactive)
same,GI50,HT-29,> 100 µM (inactive)
same,GI50,MCF7,> 100 µM (inactive)
same,GI50,DU-145,> 100 µM (inactive)
same,GI50,T47D,> 100 µM (inactive)
same,GI50,NCI-H23,> 100 µM (inactive)
same,GI50,NCI/ADR-RES,> 100 µM (inactive)
same,GI50,K562,> 100 µM (inactive)
same,GI50,U-251,> 100 µM (inactive)
same,GI50,Hs-578T,> 100 µM (inactive)
same,GI50,LOX IMVI,> 100 µM (inactive)
same,GI50,Malme-3M,> 100 µM (inactive)
same,GI50,A549,> 100 µM (inactive)
same,GI50,OVCAR-3,> 100 µM (inactive)
same,GI50,OVCAR-8,> 100 µM (inactive)
same,GI50,UACC-257,> 100 µM (inactive)
same,GI50,M14,> 100 µM (inactive)
same,GI50,RPMI-8226,> 100 µM (inactive)
same,GI50,SNB-75,> 100 µM (inactive)
same,GI50,HCT-116,> 100 µM (inactive)
same,GI50,HOP-62,> 100 µM (inactive)
same,GI50,SNB-19,> 100 µM (inactive)
same,GI50,NCI-H460,> 100 µM (inactive)
same,GI50,786-0,> 100 µM (inactive)
same,GI50,TK-10,20.3 µM (inactive)
same,GI50,SK-MEL-28,> 100 µM (inactive)
same,GI50,SK-MEL-5,> 100 µM (inactive)
same,GI50,A498,> 100 µM (inactive)
same,GI50,SK-OV-3,> 100 µM (inactive)
same,GI50,BT-549,> 100 µM (inactive)
same,GI50,HCT-15,> 100 µM
same,GI50,OVCAR-4,> 100 µM (inactive)
same,GI50,SF-295,> 100 µM (inactive)
same,GI50,SW-620,> 100 µM (inactive)
same,GI50,MDA-N,> 100 µM (inactive)
same,GI50,UO-31,> 100 µM (inactive)
same,GI50,NCI-H522,> 100 µM (inactive)
same,GI50,SF-539,> 100 µM (inactive)
same,GI50,ACHN,> 100 µM (inactive)
same,GI50,MDA-MB-435,> 100 µM (inactive)
same,GI50,SK-MEL-2,> 100 µM (inactive)
same,GI50,CAKI-1,> 100 µM (inactive)
same,GI50,MOLT-4,> 100 µM (inactive)
same,GI50,MDA-MB-231,> 100 µM (inactive)
same,GI50,SR,> 100 µM (inactive)
